In ChEMBL document CHEMBL3425423, “Hydroxy tricyclic 1,5-naphthyridinone oxabicyclooctane-linked novel bacterial topoisomerase inhibitors as broad-spectrum antibacterial agents-SAR of RHS moiety (Part-3)” (Bioorg Med Chem Lett, 2015):
Values after ≈ are worked out from the molar mass of the structure shown.

Assays:
Type in all cases: functional
Haemophilus influenzae = assay: Antibacterial activity against Haemophilus influenzae ATCC 49247; conditions: Haemophilus influenzae, ATCC 49247; read-out: MIC
Staphylococcus aureus [1] = assay: Antibacterial activity against Staphylococcus aureus Smith; conditions: Staphylococcus aureus, Smith; read-out: MIC
Streptococcus pneumoniae = assay: Antibacterial activity against Streptococcus pneumoniae IID554; conditions: Streptococcus pneumoniae, IID554; read-out: MIC
Enterococcus faecium = assay: Antibacterial activity against VanA-type vancomycin-resistant Enterococcus faecium A2373; conditions: Enterococcus faecium, A2373; read-out: MIC
Escherichia coli = assay: Antibacterial activity against Escherichia coli ATCC 25922; conditions: Escherichia coli, ATCC 25922; read-out: MIC
Pseudomonas aeruginosa = assay: Antibacterial activity against Pseudomonas aeruginosa PAO1; conditions: Pseudomonas aeruginosa, PAO1; read-out: MIC
Moraxella catarrhalis = assay: Antibacterial activity against Moraxella catarrhalis ATCC 25238; conditions: Moraxella catarrhalis, ATCC 25238; read-out: MIC
Enterococcus faecalis = assay: Antibacterial activity against Enterococcus faecalis ATCC 29212; conditions: Enterococcus faecalis, ATCC 29212; read-out: MIC
Acinetobacter baumannii = assay: Antibacterial activity against Acinetobacter baumannii IID876; conditions: Acinetobacter baumannii, IID876; read-out: MIC
Staphylococcus aureus [2] = assay: Ratio of MIC for quinolone-resistant Staphylococcus aureus MS5935 to MIC for quinolone-sensitive Staphylococcus aureus

Structure (SMILES)	MIC (Haemophilus influenzae)	MIC (Staphylococcus aureus [1])	MIC (Streptococcus pneumoniae)	MIC (Enterococcus faecium)	MIC (Escherichia coli)	MIC (Pseudomonas aeruginosa)	MIC (Moraxella catarrhalis)	MIC (Enterococcus faecalis)	MIC (Acinetobacter baumannii)	Ratio (Staphylococcus aureus [2])
O=c1ccc2ncc(F)c3c2n1C[C@@]3(O)CC12CCC(NCc3cc4c(cn3)OCS4)(CC1)CO2	4 µg/mL (≈ 8.06 µM)	0.25 µg/mL (≈ 0.503 µM)	0.25 µg/mL (≈ 0.503 µM)	8 µg/mL (≈ 16.1 µM)	8 µg/mL (≈ 16.1 µM)	32 µg/mL (≈ 64.4 µM)	0.5 µg/mL (≈ 1.01 µM)	2 µg/mL (≈ 4.03 µM)	0.5 µg/mL (≈ 1.01 µM)	
O=c1ccc2ncc(F)c3c2n1C[C@@]3(O)CC12CCC(NCc3cc4c(cn3)OCCC4)(CC1)CO2	4 µg/mL (≈ 8.12 µM)	0.13 µg/mL (≈ 0.264 µM)	0.5 µg/mL (≈ 1.02 µM)	16 µg/mL (≈ 32.5 µM)	16 µg/mL (≈ 32.5 µM)	32 µg/mL (≈ 65 µM)		4 µg/mL (≈ 8.12 µM)	4 µg/mL (≈ 8.12 µM)	
O=c1ccc2ncc(F)c3c2n1C[C@@]3(O)CC12CCC(NC/C=C/c3c(F)cccc3F)(CC1)CO2		0.063 µg/mL (≈ 0.127 µM)	0.25 µg/mL (≈ 0.502 µM)	8 µg/mL (≈ 16.1 µM)	16 µg/mL (≈ 32.2 µM)	32 µg/mL (≈ 64.3 µM)		4 µg/mL (≈ 8.04 µM)	2 µg/mL (≈ 4.02 µM)	<4
O=c1ccc2ncc(F)c3c2n1C[C@@]3(O)CC12CCC(NC/C=C/c3cc(F)ccc3F)(CC1)CO2		0.063 µg/mL (≈ 0.127 µM)	0.25 µg/mL (≈ 0.502 µM)	8 µg/mL (≈ 16.1 µM)	4 µg/mL (≈ 8.04 µM)	8 µg/mL (≈ 16.1 µM)		4 µg/mL (≈ 8.04 µM)	0.25 µg/mL (≈ 0.502 µM)	<4
O=c1ccc2ncc(F)c3c2n1C[C@@]3(O)CC12CCC(NC/C=C/c3ccc(F)cc3)(CC1)CO2		0.5 µg/mL (≈ 1.04 µM)	4 µg/mL (≈ 8.34 µM)	32 µg/mL (≈ 66.7 µM)	64 µg/mL (≈ 133 µM)	64 µg/mL (≈ 133 µM)		16 µg/mL (≈ 33.4 µM)	32 µg/mL (≈ 66.7 µM)	
O=c1ccc2ncc(F)c3c2n1C[C@@]3(O)CC12CCC(NC/C(F)=C\c3cc(F)ccc3F)(CC1)CO2		0.25 µg/mL (≈ 0.485 µM)	1 µg/mL (≈ 1.94 µM)	16 µg/mL (≈ 31 µM)	16 µg/mL (≈ 31 µM)	16 µg/mL (≈ 31 µM)		4 µg/mL (≈ 7.76 µM)	16 µg/mL (≈ 31 µM)	<4
O=c1ccc2ncc(F)c3c2n1C[C@@]3(O)CC12CCC(NC/C(F)=C/c3cc(F)ccc3F)(CC1)CO2		4 µg/mL (≈ 7.76 µM)	8 µg/mL (≈ 15.5 µM)	16 µg/mL (≈ 31 µM)	16 µg/mL (≈ 31 µM)	16 µg/mL (≈ 31 µM)		16 µg/mL (≈ 31 µM)	16 µg/mL (≈ 31 µM)	<4
O=c1ccc2ncc(F)c3c2n1C[C@@]3(O)CC12CCC(NC/C=C/c3ccccc3)(CC1)CO2		0.125 µg/mL (≈ 0.271 µM)	0.5 µg/mL (≈ 1.08 µM)	8 µg/mL (≈ 17.3 µM)	32 µg/mL (≈ 69.3 µM)	64 µg/mL (≈ 139 µM)		4 µg/mL (≈ 8.67 µM)	4 µg/mL (≈ 8.67 µM)	
O=c1ccc2ncc(F)c3c2n1C[C@@]3(O)CC12CCC(NC/C=C/c3ccccn3)(CC1)CO2		1 µg/mL (≈ 2.16 µM)	4 µg/mL (≈ 8.65 µM)	64 µg/mL (≈ 138 µM)	64 µg/mL (≈ 138 µM)	64 µg/mL (≈ 138 µM)		32 µg/mL (≈ 69.2 µM)	32 µg/mL (≈ 69.2 µM)	<4
O=c1ccc2ncc(F)c3c2n1C[C@@]3(O)CC12CCC(NCCCc3cc(F)ccc3F)(CC1)CO2		0.5 µg/mL (≈ 1 µM)	1 µg/mL (≈ 2 µM)	32 µg/mL (≈ 64.1 µM)	16 µg/mL (≈ 32 µM)	32 µg/mL (≈ 64.1 µM)		16 µg/mL (≈ 32 µM)	2 µg/mL (≈ 4 µM)	<4
O=c1ccc2ncc(F)c3c2n1C[C@@]3(O)CC12CCC(NCOc3cc(F)ccc3F)(CC1)CO2		1 µg/mL (≈ 2.05 µM)	2 µg/mL (≈ 4.1 µM)	32 µg/mL (≈ 65.6 µM)	32 µg/mL (≈ 65.6 µM)	64 µg/mL (≈ 131 µM)		16 µg/mL (≈ 32.8 µM)	4 µg/mL (≈ 8.21 µM)	<4
O=c1ccc2ncc(F)c3c2n1C[C@@]3(O)CC12CCC(NCc3cc(-c4cccs4)on3)(CC1)CO2		0.25 µg/mL (≈ 0.492 µM)	0.5 µg/mL (≈ 0.983 µM)	16 µg/mL (≈ 31.5 µM)	16 µg/mL (≈ 31.5 µM)	16 µg/mL (≈ 31.5 µM)		2 µg/mL (≈ 3.93 µM)	16 µg/mL (≈ 31.5 µM)	<4
O=c1cnc2ccc(CNC34CCC(C[C@]5(O)Cn6c(=O)ccc7ncc(F)c5c76)(CC3)OC4)nc2[nH]1		8 µg/mL (≈ 15.9 µM)	16 µg/mL (≈ 31.7 µM)	32 µg/mL (≈ 63.4 µM)	32 µg/mL (≈ 63.4 µM)	32 µg/mL (≈ 63.4 µM)		32 µg/mL (≈ 63.4 µM)	32 µg/mL (≈ 63.4 µM)	<4
COc1ccc2nc(CNC34CCC(C[C@]5(O)Cn6c(=O)ccc7ncc(F)c5c76)(CC3)OC4)c(F)cc2n1		16 µg/mL (≈ 29.9 µM)	16 µg/mL (≈ 29.9 µM)	16 µg/mL (≈ 29.9 µM)	16 µg/mL (≈ 29.9 µM)	16 µg/mL (≈ 29.9 µM)		16 µg/mL (≈ 29.9 µM)	16 µg/mL (≈ 29.9 µM)	<4
Cn1c(=O)c(CNC23CCC(C[C@]4(O)Cn5c(=O)ccc6ncc(F)c4c65)(CC2)OC3)cc2ccccc21		16 µg/mL (≈ 31 µM)	8 µg/mL (≈ 15.5 µM)	64 µg/mL (≈ 124 µM)	64 µg/mL (≈ 124 µM)	64 µg/mL (≈ 124 µM)		64 µg/mL (≈ 124 µM)	64 µg/mL (≈ 124 µM)	<4
O=c1[nH]c2c(F)ccc(F)c2cc1CNC12CCC(C[C@]3(O)Cn4c(=O)ccc5ncc(F)c3c54)(CC1)OC2		2 µg/mL (≈ 3.71 µM)	2 µg/mL (≈ 3.71 µM)	64 µg/mL (≈ 119 µM)	64 µg/mL (≈ 119 µM)	64 µg/mL (≈ 119 µM)		32 µg/mL (≈ 59.4 µM)	64 µg/mL (≈ 119 µM)	<4
